ChEMBL document CHEMBL4651402, “Screening of ~5500 FDA-approved drugs and clinical candidates for anti-SARS-CoV-2 activity” (2021)

Tested on: not listed separately
Test: in vitro
Details: chlorocebus sabaeus, Vero E6 (Vero C1008) cells, CC50

| Structure (SMILES) | CC50 at 48 h |
| --- | --- |
| O=C(O)CCc1nc(-c2ccccc2)c(-c2ccccc2)o1 [OXAPROZIN] | > 50.1 µM |
| CN(C)CCOC(C)(c1ccccc1)c1ccc(Cl)cc1 (stereo not given) [CHLORPHENOXAMINE] | 28.2 µM |
| Cc1cc(C)c2nc(-c3cnc(NCCCC4CCN(C)CC4)nc3C)[nH]c2c1 [TOREFORANT] | 22.4 µM |
| CCC(C)n1ncn(-c2ccc(N3CCN(c4ccc(OC[C@H]5CO[C@](Cn6cncn6)(c6ccc(F)cc6F)O5)cc4)CC3)cc2)c1=O (stereo not given in full) [SAPERCONAZOLE] | > 100 µM |
| Fc1ccc([C@@H]2CCNC[C@H]2COc2ccc3c(c2)OCO3)cc1 [PAROXETINE] | 16.6 µM |
| CCCCOc1cc(C(=O)NCCN(CC)CC)c2ccccc2n1 [DIBUCAINE] | ~39.6 µM |
| COc1ccccc1OCCNCC(O)COc1cccc2[nH]c3ccccc3c12 (stereo not given) [CARVEDILOL] | 17 µM |
| CCCCCCC(C)(C)c1cc(O)c([C@H]2CC(=O)[C@H]3C[C@@H]2C3(C)C)c(OC(=O)/C=C/C(=O)O)c1 [PRS-211375] | 7.67 µM |
| NC(=O)C1(N2CCCCC2)CCN(CCCN2c3ccccc3CCc3ccccc32)CC1 [CARPIPRAMINE] | 8.61 µM |
| Cc1cccc(C)c1NC(=O)CN1CCN(CCCC(c2ccc(F)cc2)c2ccc(F)cc2)CC1 [LIDOFLAZINE] | 8.41 µM |
| COc1ccc2c(c1)c(CC(=O)O)c(C)n2C(=O)c1ccc(Cl)cc1 [INDOMETHACIN] | > 100 µM |
| CN1CCN(CCCN2c3ccccc3Sc3ccccc32)CC1 [PERAZINE] | 14.6 µM |
| CNCC(O)CC12CCC(c3ccccc31)c1ccccc12 (stereo not given) [OXAPROTILINE] | 28.2 µM |
| c1ccc(CN(CCN(Cc2ccccn2)Cc2ccccn2)Cc2ccccn2)nc1 | 1.93 µM |
| CN(C)CCCn1cc(-c2ccccc2)c(-c2ccccc2)n1 [FEZOLAMINE] | 39.8 µM |

Same assay, conditions: chlorocebus sabaeus, Vero E6 (Vero C1008) cells, pCC50

| Structure (SMILES) | CC50 at 48 h |
| --- | --- |
| O=C(O)CCc1nc(-c2ccccc2)c(-c2ccccc2)o1 [OXAPROZIN] | > 50.1 µM |
| CN(C)CCOC(C)(c1ccccc1)c1ccc(Cl)cc1 (stereo not given) [CHLORPHENOXAMINE] | 28.2 µM |
| Cc1cc(C)c2nc(-c3cnc(NCCCC4CCN(C)CC4)nc3C)[nH]c2c1 [TOREFORANT] | 22.4 µM |
| CCC(C)n1ncn(-c2ccc(N3CCN(c4ccc(OC[C@H]5CO[C@](Cn6cncn6)(c6ccc(F)cc6F)O5)cc4)CC3)cc2)c1=O (stereo not given in full) [SAPERCONAZOLE] | > 100 µM |
| Fc1ccc([C@@H]2CCNC[C@H]2COc2ccc3c(c2)OCO3)cc1 [PAROXETINE] | 16.6 µM |
| CCCCOc1cc(C(=O)NCCN(CC)CC)c2ccccc2n1 [DIBUCAINE] | ~39.8 µM |
| COc1ccccc1OCCNCC(O)COc1cccc2[nH]c3ccccc3c12 (stereo not given) [CARVEDILOL] | 17 µM |
| CCCCCCC(C)(C)c1cc(O)c([C@H]2CC(=O)[C@H]3C[C@@H]2C3(C)C)c(OC(=O)/C=C/C(=O)O)c1 [PRS-211375] | 7.59 µM |
| NC(=O)C1(N2CCCCC2)CCN(CCCN2c3ccccc3CCc3ccccc32)CC1 [CARPIPRAMINE] | 8.51 µM |
| Cc1cccc(C)c1NC(=O)CN1CCN(CCCC(c2ccc(F)cc2)c2ccc(F)cc2)CC1 [LIDOFLAZINE] | 8.32 µM |
| COc1ccc2c(c1)c(CC(=O)O)c(C)n2C(=O)c1ccc(Cl)cc1 [INDOMETHACIN] | > 100 µM |
| CN1CCN(CCCN2c3ccccc3Sc3ccccc32)CC1 [PERAZINE] | 14.5 µM |
| CNCC(O)CC12CCC(c3ccccc31)c1ccccc12 (stereo not given) [OXAPROTILINE] | 28.2 µM |
| c1ccc(CN(CCN(Cc2ccccn2)Cc2ccccn2)Cc2ccccn2)nc1 | 1.91 µM |
| CN(C)CCCn1cc(-c2ccccc2)c(-c2ccccc2)n1 [FEZOLAMINE] | 39.8 µM |

Tested on: SARS-CoV-2
Test: microbe, parasite or virus in culture
Type: functional, organism-based, Chlorocebus sabaeus, Vero C1008
Details: Severe acute respiratory syndrome coronavirus 2, Vero C1008, 48 h; read-out: IC50

| Structure (SMILES) | IC50 |
| --- | --- |
| O=C(O)CCc1nc(-c2ccccc2)c(-c2ccccc2)o1 [OXAPROZIN] | > 50.1 µM |
| CN(C)CCOC(C)(c1ccccc1)c1ccc(Cl)cc1 (stereo not given) [CHLORPHENOXAMINE] | ~14.5 µM |
| Cc1cc(C)c2nc(-c3cnc(NCCCC4CCN(C)CC4)nc3C)[nH]c2c1 [TOREFORANT] | > 50.1 µM |
| CCC(C)n1ncn(-c2ccc(N3CCN(c4ccc(OC[C@H]5CO[C@](Cn6cncn6)(c6ccc(F)cc6F)O5)cc4)CC3)cc2)c1=O (stereo not given in full) [SAPERCONAZOLE] | > 100 µM |
| Fc1ccc([C@@H]2CCNC[C@H]2COc2ccc3c(c2)OCO3)cc1 [PAROXETINE] | > 100 µM |
| CCCCOc1cc(C(=O)NCCN(CC)CC)c2ccccc2n1 [DIBUCAINE] | ~29.5 µM |
| COc1ccccc1OCCNCC(O)COc1cccc2[nH]c3ccccc3c12 (stereo not given) [CARVEDILOL] | 10 µM |
| CCCCCCC(C)(C)c1cc(O)c([C@H]2CC(=O)[C@H]3C[C@@H]2C3(C)C)c(OC(=O)/C=C/C(=O)O)c1 [PRS-211375] | > 50.1 µM |
| NC(=O)C1(N2CCCCC2)CCN(CCCN2c3ccccc3CCc3ccccc32)CC1 [CARPIPRAMINE] | > 100 µM |
| Cc1cccc(C)c1NC(=O)CN1CCN(CCCC(c2ccc(F)cc2)c2ccc(F)cc2)CC1 [LIDOFLAZINE] | > 100 µM |
| COc1ccc2c(c1)c(CC(=O)O)c(C)n2C(=O)c1ccc(Cl)cc1 [INDOMETHACIN] | > 100 µM |
| CN1CCN(CCCN2c3ccccc3Sc3ccccc32)CC1 [PERAZINE] | > 100 µM |
| CNCC(O)CC12CCC(c3ccccc31)c1ccccc12 (stereo not given) [OXAPROTILINE] | > 100 µM |
| c1ccc(CN(CCN(Cc2ccccn2)Cc2ccccn2)Cc2ccccn2)nc1 | > 100 µM |
| CN(C)CCCn1cc(-c2ccccc2)c(-c2ccccc2)n1 [FEZOLAMINE] | > 100 µM |

Same assay, conditions: Severe acute respiratory syndrome coronavirus 2, Vero C1008, 48 h; read-out: pIC50 (converted)

| Structure (SMILES) | IC50 |
| --- | --- |
| O=C(O)CCc1nc(-c2ccccc2)c(-c2ccccc2)o1 [OXAPROZIN] | > 50.1 µM |
| CN(C)CCOC(C)(c1ccccc1)c1ccc(Cl)cc1 (stereo not given) [CHLORPHENOXAMINE] | ~14.5 µM |
| Cc1cc(C)c2nc(-c3cnc(NCCCC4CCN(C)CC4)nc3C)[nH]c2c1 [TOREFORANT] | > 50.1 µM |
| CCC(C)n1ncn(-c2ccc(N3CCN(c4ccc(OC[C@H]5CO[C@](Cn6cncn6)(c6ccc(F)cc6F)O5)cc4)CC3)cc2)c1=O (stereo not given in full) [SAPERCONAZOLE] | > 100 µM |
| Fc1ccc([C@@H]2CCNC[C@H]2COc2ccc3c(c2)OCO3)cc1 [PAROXETINE] | > 100 µM |
| CCCCOc1cc(C(=O)NCCN(CC)CC)c2ccccc2n1 [DIBUCAINE] | ~29.5 µM |
| COc1ccccc1OCCNCC(O)COc1cccc2[nH]c3ccccc3c12 (stereo not given) [CARVEDILOL] | 10 µM |
| CCCCCCC(C)(C)c1cc(O)c([C@H]2CC(=O)[C@H]3C[C@@H]2C3(C)C)c(OC(=O)/C=C/C(=O)O)c1 [PRS-211375] | > 50.1 µM |
| NC(=O)C1(N2CCCCC2)CCN(CCCN2c3ccccc3CCc3ccccc32)CC1 [CARPIPRAMINE] | > 100 µM |
| Cc1cccc(C)c1NC(=O)CN1CCN(CCCC(c2ccc(F)cc2)c2ccc(F)cc2)CC1 [LIDOFLAZINE] | > 100 µM |
| COc1ccc2c(c1)c(CC(=O)O)c(C)n2C(=O)c1ccc(Cl)cc1 [INDOMETHACIN] | > 100 µM |
| CN1CCN(CCCN2c3ccccc3Sc3ccccc32)CC1 [PERAZINE] | > 100 µM |
| CNCC(O)CC12CCC(c3ccccc31)c1ccccc12 (stereo not given) [OXAPROTILINE] | > 100 µM |
| c1ccc(CN(CCN(Cc2ccccn2)Cc2ccccn2)Cc2ccccn2)nc1 | > 100 µM |
| CN(C)CCCn1cc(-c2ccccc2)c(-c2ccccc2)n1 [FEZOLAMINE] | > 100 µM |

Tested on: SARS-CoV-2
Test: microbe, parasite or virus in culture
Details: Severe acute respiratory syndrome coronavirus 2, Vero C1008, 48 h

| Structure (SMILES) | IC50 |
| --- | --- |
| O=C(O)CCc1nc(-c2ccccc2)c(-c2ccccc2)o1 [OXAPROZIN] | 11.8 µM |
| CN(C)CCOC(C)(c1ccccc1)c1ccc(Cl)cc1 (stereo not given) [CHLORPHENOXAMINE] | 19.5 µM |
| Cc1cc(C)c2nc(-c3cnc(NCCCC4CCN(C)CC4)nc3C)[nH]c2c1 [TOREFORANT] | > 25.1 µM |
| CCC(C)n1ncn(-c2ccc(N3CCN(c4ccc(OC[C@H]5CO[C@](Cn6cncn6)(c6ccc(F)cc6F)O5)cc4)CC3)cc2)c1=O (stereo not given in full) [SAPERCONAZOLE] | > 100 µM |
| Fc1ccc([C@@H]2CCNC[C@H]2COc2ccc3c(c2)OCO3)cc1 [PAROXETINE] | 15.1 µM |
| CCCCOc1cc(C(=O)NCCN(CC)CC)c2ccccc2n1 [DIBUCAINE] | 29.1 µM |
| COc1ccccc1OCCNCC(O)COc1cccc2[nH]c3ccccc3c12 (stereo not given) [CARVEDILOL] | 15.5 µM |
| CCCCCCC(C)(C)c1cc(O)c([C@H]2CC(=O)[C@H]3C[C@@H]2C3(C)C)c(OC(=O)/C=C/C(=O)O)c1 [PRS-211375] | > 100 µM |
| NC(=O)C1(N2CCCCC2)CCN(CCCN2c3ccccc3CCc3ccccc32)CC1 [CARPIPRAMINE] | 8.91 µM |
| Cc1cccc(C)c1NC(=O)CN1CCN(CCCC(c2ccc(F)cc2)c2ccc(F)cc2)CC1 [LIDOFLAZINE] | 9.55 µM |
| COc1ccc2c(c1)c(CC(=O)O)c(C)n2C(=O)c1ccc(Cl)cc1 [INDOMETHACIN] | > 100 µM |
| CN1CCN(CCCN2c3ccccc3Sc3ccccc32)CC1 [PERAZINE] | 14 µM |
| CNCC(O)CC12CCC(c3ccccc31)c1ccccc12 (stereo not given) [OXAPROTILINE] | > 100 µM |
| c1ccc(CN(CCN(Cc2ccccn2)Cc2ccccn2)Cc2ccccn2)nc1 | > 3.09 µM |
| CN(C)CCCn1cc(-c2ccccc2)c(-c2ccccc2)n1 [FEZOLAMINE] | 14.5 µM |

Same assay, conditions: Severe acute respiratory syndrome coronavirus 2, Vero C1008, 48 h, read-out: pIC50 (converted)

| Structure (SMILES) | IC50 |
| --- | --- |
| O=C(O)CCc1nc(-c2ccccc2)c(-c2ccccc2)o1 [OXAPROZIN] | 11.7 µM |
| CN(C)CCOC(C)(c1ccccc1)c1ccc(Cl)cc1 (stereo not given) [CHLORPHENOXAMINE] | 19.5 µM |
| Cc1cc(C)c2nc(-c3cnc(NCCCC4CCN(C)CC4)nc3C)[nH]c2c1 [TOREFORANT] | > 25.1 µM |
| CCC(C)n1ncn(-c2ccc(N3CCN(c4ccc(OC[C@H]5CO[C@](Cn6cncn6)(c6ccc(F)cc6F)O5)cc4)CC3)cc2)c1=O (stereo not given in full) [SAPERCONAZOLE] | > 100 µM |
| Fc1ccc([C@@H]2CCNC[C@H]2COc2ccc3c(c2)OCO3)cc1 [PAROXETINE] | 15.1 µM |
| CCCCOc1cc(C(=O)NCCN(CC)CC)c2ccccc2n1 [DIBUCAINE] | 28.8 µM |
| COc1ccccc1OCCNCC(O)COc1cccc2[nH]c3ccccc3c12 (stereo not given) [CARVEDILOL] | 15.5 µM |
| CCCCCCC(C)(C)c1cc(O)c([C@H]2CC(=O)[C@H]3C[C@@H]2C3(C)C)c(OC(=O)/C=C/C(=O)O)c1 [PRS-211375] | > 100 µM |
| NC(=O)C1(N2CCCCC2)CCN(CCCN2c3ccccc3CCc3ccccc32)CC1 [CARPIPRAMINE] | 8.91 µM |
| Cc1cccc(C)c1NC(=O)CN1CCN(CCCC(c2ccc(F)cc2)c2ccc(F)cc2)CC1 [LIDOFLAZINE] | 9.55 µM |
| COc1ccc2c(c1)c(CC(=O)O)c(C)n2C(=O)c1ccc(Cl)cc1 [INDOMETHACIN] | > 100 µM |
| CN1CCN(CCCN2c3ccccc3Sc3ccccc32)CC1 [PERAZINE] | 13.8 µM |
| CNCC(O)CC12CCC(c3ccccc31)c1ccccc12 (stereo not given) [OXAPROTILINE] | > 100 µM |
| c1ccc(CN(CCN(Cc2ccccn2)Cc2ccccn2)Cc2ccccn2)nc1 | > 3.09 µM |
| CN(C)CCCn1cc(-c2ccccc2)c(-c2ccccc2)n1 [FEZOLAMINE] | 14.5 µM |
